Reference: patent publication US20240109881A1, “Heteroaryl Compounds as Ligand Directed Degraders of IRAK4” (Bristol-Myers Squibb Company, priority 2022, published 2024)
Where a name gives a salt, the structure may show the parent alone.

Molecular target: T1, IRAK4 (Homo sapiens, UniProt Q9NWZ3)
T1 construct: endogenous in cells; host or cells: THP-1 cells
T1 sequence (Q9NWZ3 1-460): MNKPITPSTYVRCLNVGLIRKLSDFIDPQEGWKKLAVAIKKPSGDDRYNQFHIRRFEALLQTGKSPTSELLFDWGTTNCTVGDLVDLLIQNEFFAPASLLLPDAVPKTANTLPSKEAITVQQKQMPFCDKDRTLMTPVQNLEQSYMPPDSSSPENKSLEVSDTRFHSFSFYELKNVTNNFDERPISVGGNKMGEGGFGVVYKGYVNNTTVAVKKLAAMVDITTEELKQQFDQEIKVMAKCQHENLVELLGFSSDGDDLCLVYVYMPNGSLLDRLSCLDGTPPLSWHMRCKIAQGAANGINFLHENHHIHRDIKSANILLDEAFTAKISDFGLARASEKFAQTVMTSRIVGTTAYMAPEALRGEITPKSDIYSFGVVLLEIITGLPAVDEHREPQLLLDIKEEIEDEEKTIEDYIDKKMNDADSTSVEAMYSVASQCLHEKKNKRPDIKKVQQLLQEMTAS
Assay: LVL THP1 HTRF (THP1 Homogeneous Time Resolved Fluorescence)
Assay type: cell-based
Conditions: THP1 cells, 18 h incubation with compound; for DC50: read-out: LVL THP1 HTRF EC50
Summary of the method: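 THP-1 cells in phenol red-free RPMI with 10% FBS were dosed with compound (20 nL in DMSO) for 18 h at 37° C. After 2 h lysis, IRAK4 was detected with anti-IRAK4-d2/anti-IRAK4-K HTRF antibodies for 18 h at room temperature and read at 665/615 nm; a parallel CTG plate was run.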

LVL THP1 HTRF YMIN | DC50 | Structure (SMILES)
3.5% | 0.0087 µM | CC[C@H](C#N)Nc1cc(-n2ncc3cc(C#N)cnc32)ncc1-n1cc([C@H]2CC[C@H](CCN3CCN(c4ccc(C5CCC(=O)NC5=O)cc4)CC3)CC2)nn1 (stereo in doubt) [P-392]
3.1% | 0.0048 µM | N#Cc1cnc2c(cnn2-c2cc(N[C@@H]3CCOC3)c(-n3cc([C@H]4CC[C@H](CCN5CCN(c6ccc(C7CCC(=O)NC7=O)cc6)CC5)CC4)nn3)cn2)c1 (stereo in doubt) [P-405]
33.3% | 0.148 µM | O=C1CCC(N2C(=O)c3ccc(NCCCNC(=O)C4CCC(NC(=O)c5cnc(Nc6ccc7ncsc7c6)cc5NC5CCCC5)CC4)cc3C2=O)C(=O)N1 (stereo not shown) [P-1]
3.0% | – | CC(F)(F)CNc1cc(-n2ncc3cc(C#N)cnc32)ncc1-n1cc(C2CCC(CCN3CCN(c4ccc(C5CCC(=O)NC5=O)cc4)CC3)CC2)nn1 (stereo not shown) [P-169]
– | 0.026 µM | CC(F)(F)CNc1cc(-n2ncc3cc(C#N)cnc32)ncc1-n1cc([C@H]2CC[C@H](CCN3CCN(c4ccc(C5CCC(=O)NC5=O)cc4)CC3)CC2)nn1 (stereo partly shown) [P-169]
0.9% | 0.014 µM | Cc1cc(C2CCC(=O)NC2=O)ccc1N1CCN(CC[C@H]2CC[C@H](NC(=O)c3cnc(-n4ncc5cc(C#N)c(N)nc54)cc3N[C@H](C)C#N)CC2)C[C@H]1C (stereo partly shown) [P-170]
1.2% | 0.023 µM | Cc1cc(N2CCN(CC[C@H]3CC[C@H](NC(=O)c4cnc(-n5ncc6cc(C#N)c(N)nc65)cc4N[C@H](C)C#N)CC3)C[C@H]2C)ccc1C1CCC(=O)NC1=O (stereo partly shown) [P-171]
1.1% | 0.01 µM | Cc1cc(N2CCN(CC[C@H]3CC[C@H](NC(=O)c4cnc(-n5ncc6cc(C#N)c(N)nc65)cc4N[C@H](C)C#N)CC3)C[C@H]2C)ccc1C1CCC(=O)NC1=O (stereo partly shown) [P-172]
0.7% | 0.011 µM | C[C@H](C#N)Nc1cc(-n2ncc3cc(C#N)c(N)nc32)ncc1C(=O)N[C@H]1CC[C@H](CCN2CCN(c3ccc(C4CCC(=O)NC4=O)c(F)c3)[C@H](C)C2)CC1 (stereo partly shown) [P-173]
2.0% | 0.065 µM | C[C@H](C#N)Nc1cc(-n2ncc3cc(C#N)cnc32)ncc1C(=O)N[C@H]1CC[C@H](CCN2CC3CC2CN3c2ccc(C3CCC(=O)NC3=O)cc2)CC1 (stereo partly shown) [P-179]
1.3% | 0.051 µM | COc1nc2c(cnn2-c2cc(N[C@H](C)C#N)c(C(=O)N[C@H]3CC[C@H](CCN4CCN(c5ccc(C6CCC(=O)NC6=O)cc5)CC4)CC3)cn2)cc1C#N (stereo partly shown) [P-184]
1.5% | 0.017 µM | CC(F)(F)CNc1cc(-n2ncc3cc(C#N)c(N)nc32)ncc1C(=O)N[C@H]1CC[C@H](CCN2CCN(c3ccc(C4CCC(=O)NC4=O)cc3)CC2)CC1 (stereo partly shown) [P-185]
1.4% | 0.02 µM | C[C@H](C#N)Nc1cc(-n2ncc3cc(C#N)c(N)nc32)ncc1C(=O)N[C@H]1CC[C@H](CCN2CCN(c3ccc(C4CCC(=O)NC4=O)c(Cl)c3)[C@H](C)C2)CC1 (stereo partly shown) [P-187]
1.1% | 0.006 µM | CNc1nc2c(cnn2-c2cc(N[C@H](C)C#N)c(C(=O)N[C@H]3CC[C@H](CCN4CCN(c5ccc(C6CCC(=O)NC6=O)cc5)CC4)CC3)cn2)cc1C#N (stereo partly shown) [P-188]
24.9% | 0.158 µM | C[C@H](C#N)Nc1cc(-n2ncc3cc(C#N)cnc32)ncc1C(=O)N[C@H]1CC[C@H](CCN2CCN(c3ccc(C4CCC(=O)NC4=O)cc3)C3(COC3)C2)CC1 (stereo partly shown) [P-190]
20.4% | 1.79 µM | C[C@H](C#N)Nc1cc(-n2ncc3cc(C#N)cnc32)ncc1C(=O)N[C@H]1CC[C@H](CCN2CCN(c3ccc(C4CCC(=O)NC4=O)cc3)C3(CC3)C2)CC1 (stereo partly shown) [P-191]
1.0% | 0.058 µM | CCc1nc2c(cnn2-c2cc(N[C@H](C)C#N)c(C(=O)N[C@H]3CC[C@H](CCN4CCN(c5ccc(C6CCC(=O)NC6=O)cc5)CC4)CC3)cn2)cc1C#N (stereo partly shown) [P-192]
2.2% | – | C[C@H](C#N)Nc1cc(-n2ncc3cc(C#N)cnc32)ncc1-c1cn(C2CCC(CCN3CCN(c4ccc(C5CCC(=O)NC5=O)cc4)CC3)CC2)nn1 (stereo partly shown) [P-195]
– | 0.006 µM | C[C@H](C#N)Nc1cc(-n2ncc3cc(C#N)cnc32)ncc1-c1cn([C@H]2CC[C@H](CCN3CCN(c4ccc(C5CCC(=O)NC5=O)cc4)CC3)CC2)nn1 (stereo partly shown) [P-195]
3.5% | – | C[C@H](C#N)Nc1cc(-n2ncc3cc(C#N)cnc32)ncc1-c1cc(C2CCC(CCN3CCN(c4ccc(C5CCC(=O)NC5=O)cc4)CC3)CC2)on1 (stereo partly shown) [P-196]
– | 0.167 µM | C[C@H](C#N)Nc1cc(-n2ncc3cc(C#N)cnc32)ncc1-c1cc([C@H]2CC[C@H](CCN3CCN(c4ccc(C5CCC(=O)NC5=O)cc4)CC3)CC2)on1 (stereo partly shown) [P-196]
1.2% | 0.01 µM | CC(C#N)Nc1cc(-n2ncc3cc(C#N)cnc32)ncc1-n1cc(C2CCC(C(F)CN3CCN(c4ccc(C5CCC(=O)NC5=O)cc4)CC3)CC2)nn1 (stereo not shown) [P-198]
2.7% | 0.002 µM | C[C@H](C#N)Nc1cc(-n2ncc3cc(C#N)cnc32)ncc1-n1cc([C@H]2CC[C@H](C(Cl)CN3CCN(c4ccc(C5CCC(=O)NC5=O)cc4)CC3)CC2)nn1 (stereo partly drawn) [P-199, 1-(5-(4-((1R,4R)-4-((1R)-1-chloro-2-(4-(4-(2,6-dioxopiperidin-3-yl)phenyl)piperazin-1-yl)ethyl)cyclohexyl)-1H-1,2,3-triazol-1-yl)-4-(((R)-1-cyanoethyl)amino)pyridin-2-yl)-1H-pyrazolo[3,4-b]pyridine-5-carbonitrile.TFA]
1.5% | 0.013 µM | C[C@H](C#N)Nc1cc(-n2ccc3cc(C#N)c(N)nc32)ncc1C(=O)N[C@H]1CC[C@H](CCN2CCN(c3ccc(C4CCC(=O)NC4=O)cc3)CC2)CC1 (stereo partly shown) [P-200]
0.6% | 0.002 µM | C[C@H](C#N)Nc1cc(-n2ncc3cc(C#N)cnc32)ncc1-n1cc(C2CCC(CCN3[C@@H](C)CN(c4ccc(C5CCC(=O)NC5=O)cc4)C[C@@H]3C)CC2)nn1 (stereo partly shown) [P-201]
1.4% | 0.01 µM | C[C@H](C#N)Nc1cc(-n2ncc3cc(C#N)cnc32)ncc1-n1cc(C23CCC(CCN4CCN(c5ccc(C6CCC(=O)NC6=O)cc5)CC4)(CC2)C3)nn1 (stereo partly drawn) [P-202, 1-(4-(((R)-1-cyanoethyl)amino)-5-(4-(4-(2-(4-(4-(2,6-dioxopiperidin-3-yl)phenyl)piperazin-1-yl)ethyl)bicyclo[2.2.1]heptan-1-yl)-1H-1,2,3-triazol-1-yl)pyridin-2-yl)-1H-pyrazolo[3,4-b]pyridine-5-carbonitrile, TFA]
3.0% | – | C[C@H](C#N)Nc1cc(-n2ncc3cc(C#N)cnc32)ncc1-c1cnn(C2CCC(CCN3CCN(c4ccc(C5CCC(=O)NC5=O)cc4)CC3)CC2)c1 (stereo partly shown) [P-203]
– | 0.011 µM | C[C@H](C#N)Nc1cc(-n2ncc3cc(C#N)cnc32)ncc1-c1cnn([C@H]2CC[C@H](CCN3CCN(c4ccc(C5CCC(=O)NC5=O)cc4)CC3)CC2)c1 (stereo partly shown) [P-203]

Structure (SMILES) | LVL THP1 HTRF YMIN | DC50
C[C@H](C#N)Nc1cc(-n2ncc3cc(C#N)cnc32)ncc1C(=O)N[C@H]1CC[C@H](CCN2C3COCC2CN(c2ccc(C4CCC(=O)NC4=O)cc2)C3)CC1 (stereo partly shown) [P-189] | 25.3% | 0.054 µM
C[C@H](C#N)Nc1cc(-n2ncc3cc(C#N)cnc32)ncc1C(=O)N[C@H]1CC[C@H](CCN2CC3COCC(C2)N3c2ccc(C3CCC(=O)NC3=O)cc2)CC1 (stereo partly shown) [P-194] | 39.8% | 4.04 µM
